The subject of assay [1] is tobacco budworm (Heliothis virescens). As to the kind of experiment: Activity against tobacco budworm (TBW). In kind it is in vivo. The settings on record: 144 h, read-out: percent mortality, TBW. As for the experimental part: In conducting evaluations of insecticidal activity, each test compound was formulated as a 400 ppm solution, and this solution was then diluted with water to give lesser concentrations. The 400 ppm solution was prepared by combining 19.2 mL of 0.05% solution of Tween 20 (polyoxyethylene (20) sorbitan monolaurate) in water with a solution of 8 mg of the compound in 0.8 mL of acetone/EtOH (9/1).
Activity against tobacco budworm (Heliothis virescens) was evaluated as follows. A general purpose lepidoptera artificial diet was diluted to half strength with a 5% non nutritive agar. 8 mL of this diet material was dispensed into each one ounce diet cup. One hour prior to treatment 18 to 20 eggs were dispensed onto the diet surface. The cups were then sprayed with formulated material through a flat-fan nozzle. The test was run using concentrations of 400 ppm and 50 ppm. Treated cups were air dried prior to sealing with plastic caps. The cups were held for 6 days at room temperature. Activity was then rated based on the total number of live and dead larvae, and on the size of live larvae.

Assay [2] deals with two spotted spider mite (Tetranychus urticae). The assay is described as follows: whole plant or invertebrate. The settings on record: 72 h, read-out: percent mortality, TSSM.
The test system of assay [3] is beet armyworm (Spodoptera exiqua). As to the kind of experiment: whole plant or invertebrate. The settings on record: 144 h, read-out: percent mortality, BAW.
The subject of assay [4] is cotton aphid (Aphis gossypii). As to the kind of experiment: whole plant or invertebrate. The settings on record: 72 h, read-out: percent mortality, CA.
Assay [5] has as its system peanut root knot nematode (Meloidogyne arenaria). As to the kind of experiment: whole plant or invertebrate. The conditions noted are these: in Arachis hypogaea, read-out: percent mortality, RKN.
In assay [6] the test system is German cockroach (Blattella germanicus). The assay is described as follows: whole plant or invertebrate. The settings on record: 240 h, read-out: percent mortality, GECR.
For assay [7], the system named is Southern corn rootworm (Diabrotica undecimpuctata howardi Barber). The assay is described as follows: whole plant or invertebrate. The settings on record: in Zea mays, soil, read-out: percent mortality, SCRW.

The results in this text go back to patent US5556859A, “N-(4-pyrimidinyl)amide pesticides” (DowElanco, priority 1994, dated 1996).

Turning to `CCc1nccc(NC(=O)Cc2ccc(-c3ccccc3)cc2)n1` [Compound 40], the mortality (in general, the percentage killed) at 400 ppm in assay [1] was found to be 40%; in assay [2], 0%; in assay [3] it was 20%; in assay [4], 60%.
Taken in the same sequence, the figures for `CCc1nccc(NC(=O)Cc2ccc(OC(F)F)cc2)n1` [Compound 42, 4-difluromethoxy-N-(2-ethyl-4-pyrimidinyl)acetamide] were 0%, 100%, 40% and 100%.
For `COCc1nccc(NC(=O)Cc2ccc(Oc3ccc(F)cc3)cc2)n1` [Compound 39, 4-(4-fluorophenoxy)phenyl-N-(2-(methoxymethyl)-4-pyrimidinyl)acetamide], the mortality at 400 ppm in assay [1], in assay [5], in assay [6], in assay [2], in assay [3] and in assay [4] was 100% each time. The mortality at 24 µg/g in assay [7] was 0%.
Turning to `CCc1nccc(NC(=O)Cc2ccc(C(C)(C)C)cc2)n1` [Compound 48, 4-(1,1-dimethylethyl)phenyl-N-(2-ethyl-4-pyrimidinyl)acetamide], the mortality at 400 ppm stood at 20% in assay [1], 100% in assay [2], 0% in assay [3] and 100% in assay [4].
Turning to `CCCCOc1ccc(CC(=O)Nc2ccnc(CC)n2)cc1` [Compound 44, 4-butoxyphenyl-N-(2-ethyl-4-pyrimidinyl)acetamide], the mortality at 400 ppm in assay [1] turned out to be 0%; in assay [2], 90%; in assay [3], 100%; in assay [4], 100%.
`COCc1nccc(NC(=O)Cc2ccc(OCC(F)(F)F)cc2)n1` [Compound 38, 4-(2,2,2-trifluroethoxy)phenyl-N-(2-(methoxymethyl)-4-pyrimidinyl)acetamide]: the mortality at 400 ppm in assay [1], in assay [5], in assay [6], in assay [2], in assay [3] and in assay [4] was 0% throughout. In addition, the mortality at 24 µg/g in assay [7] was determined as 0%.
Consider `CCCCCCCCCCCCCCCCCC(=O)Nc1ccnc(CC)n1` [Compound 34], for which the mortality at 400 ppm in assay [1] came out at 0%; in assay [5], 0%; in assay [6], 20%; in assay [2], 0%; in assay [3], 0%; in assay [4], 0%. Further, the mortality at 24 µg/g in assay [7] turned out to be 0%.
For the compound `CCc1nccc(NC(=O)Cc2ccc(Oc3ccc(Cl)cn3)cc2)n1` [Compound 37, 4-(5-chloro-2-pyridinyloxy)phenyl-N-(2-ethyl-4-pyrimidinyl)acetamide], the mortality at 400 ppm was found to be 100% in assay [1]; 0% in assay [5]; 100% in assay [6]; 0% in assay [2]; 100% in assay [3]; 0% in assay [4]. Further, the mortality at 24 µg/g in assay [7] came to 0%.
As for `CC(C)c1nccc(NC(=O)Cc2ccc(OCC(F)(F)F)cc2)n1` [Compound 30, 4-(2,2,2-trifluroethoxy)phenyl-N-(2-(1-methylethyl)-4-pyrimidinyl)acetamide], the mortality at 400 ppm in assay [1] came to 90%; in assay [5], 100%; in assay [6], 80%; in assay [2], 100%; in assay [3], 100%; in assay [4] it was 100%. Further, the mortality at 24 µg/g in assay [7] was determined as 100%.
Consider `CCCCCc1ccc(CC(=O)Nc2ccnc(CC)n2)cc1` [Compound 41, 4-pentylphenyl-N-(2-ethyl-4-pyrimidinyl)acetamide], for which the mortality at 400 ppm in assay [1] was found to be 40%; in assay [2], 100%; in assay [3] it was 100%; in assay [4], 100%.
Consider `CCCCc1nccc(NC(=O)Cc2ccc(OCC(F)(F)F)cc2)n1` [Compound 20, 4-(2,2,2-trifluroethoxy)phenyl-N-(2-butyl-4-pyrimidinyl)acetamide], for which the mortality at 400 ppm turned out to be 0% in assay [1]; 80% in assay [5]; 0% in assay [6]; 0% in assay [2]; 100% in assay [3]; 0% in assay [4]. In addition, the mortality at 24 µg/g in assay [7] turned out to be 100%.
Regarding `CCc1nccc(NC(=O)Cc2ccc(OCC(F)(F)C(F)F)cc2)n1` [Compound 43, 4-(2,2,3,3-tetrafluropropoxy)phenyl-N-(2-ethyl-4-pyrimidinyl)acetamide], the mortality at 400 ppm in assay [1] came to 60%; in assay [2], 100%; in assay [3] it was 60%; in assay [4], 100%.
With `CCc1nccc(NC(=O)Cc2ccc(Oc3ncc(C(F)(F)F)cc3F)cc2)n1` [Compound 32, 4-(3-fluoro-5-trifluromethyl-2-pyridinyloxy)phenyl-N-(2-ethyl-4-pyrimidinyl)acetamide], the mortality at 400 ppm in assay [1] is 100%; in assay [5], 100%; in assay [6], 60%; in assay [2] it was 100%; in assay [3], 100%; in assay [4] it was 100%. For the same compound, the mortality at 24 µg/g in assay [7] is 0%.
In the case of `CCc1nccc(NC(=O)Cc2ccc(Oc3ccc(Cl)cc3)cc2)n1` [Compound 17, 4-(4-chlorophenoxy)phenyl-N-(2-ethyl-4-pyrimidinyl)acetamide], the mortality at 400 ppm in assay [1], in assay [5], in assay [6], in assay [2], in assay [3] and in assay [4] was 100% throughout. In addition, the mortality at 24 µg/g in assay [7] worked out at 100%.
For the compound `CCc1nccc(NC(=O)Cc2ccc(OCC(F)(F)F)cn2)n1` [Compound 35, 5-(2,2,2-trifluoromethoxy)-2-pyridinyl-N-(2-ethyl-4-pyrimidinyl)acetamide], the mortality at 400 ppm is 60% in assay [1]; 100% in assay [5]; 80% in assay [6]; 100% in assay [2]; 100% in assay [3]; 100% in assay [4]. In assay [7], the mortality at 24 µg/g worked out at 100%.
For `CC(C)c1nccc(NC(=O)Cc2ccc(Oc3ccc(C(F)(F)F)cc3)cc2)n1` [Compound 72, 4-(4-trifluoromethylphenoxy)phenyl-N-(2-(1-methylethyl)-4-pyrimidinyl)acetamide], the mortality at 400 ppm in assay [1] was 100%; in assay [5], 100%; in assay [6], 100%; in assay [2], 100%; in assay [3] it was 0%; in assay [4] it was 100%. For the same compound, in assay [7], the mortality at 24 µg/g was determined as 100%.
As for `CCc1nccc(NC(=O)Cc2ccc3ccccc3c2)n1` [Compound 50, 2-naphthyl-N-(2-ethyl-4-pyrimidinyl)acetamide], the mortality at 400 ppm came to 40% in assay [1], 100% in assay [2], 60% in assay [3] and 100% in assay [4].
For `CCc1nccc(NC(=O)Cc2ccc(C(C)C)cc2)n1` [Compound 45, 4-(1-methylethyl)phenyl-N-(2-ethyl-4-pyrimidinyl)acetamide], the mortality at 400 ppm worked out at 0% in assay [1], 100% in assay [2], 100% in assay [3] and 100% in assay [4].
Consider `CCc1nccc(NC(=O)Cc2ccc(Oc3ccccc3)cc2)n1` [Compound 47, 4-phenoxyphenyl-N-(2-ethyl-4-pyrimidinyl)acetamide], for which the mortality at 400 ppm in assay [1] was 40%; in assay [2], 100%; in assay [3], 100%; in assay [4] it was 100%.
`CCc1nccc(NC(=O)COc2ccc(C(C)C)cc2)n1` [Compound 46, 4-(1-methylethyl)phenoxy-N-(2-ethyl-4-pyrimidinyl)acetamide]: the mortality at 400 ppm in assay [1], in assay [2], in assay [3] and in assay [4] was 0% in each case.
As for `CCc1nccc(NC(=O)Cc2ccc(Oc3ccc(C(C)=O)cc3)cc2)n1` [Compound 49, 4-(4-acetylphenoxy)phenyl-N-(2-ethyl-4-pyrimidinyl)acetamide], the mortality at 400 ppm in assay [1] was 40%; in assay [2], 100%; in assay [3], 100%; in assay [4], 100%.
